Results reported in patent US7163952B2, “Azole compound and medicinal use thereof” (Japan Tobacco Inc., priority 2001, dated 2007).

SMILES | melting point
CCN(c1ccc(C(=O)O)cc1)c1nc(-c2ccc(NC(=O)c3ccc(C4CCCCC4)cc3)cc2)cs1 [Example 8, 4-(N-(4-(4-(4-cyclohexylbenzoylamino)phenyl)-2-thiazolyl)-N-ethylamino)benzoic acid] | 250 °C (dec.)
CC(=O)OCOC(=O)c1ccc(CN(C)c2nc(-c3ccc(OCc4ccc(C5CCCCC5)cc4)cc3)cs2)cc1 [Example 270, acetoxymethyl 4-((N-(4-(4-(4-cyclohexylbenzyloxy)phenyl)-2-thiazolyl)-N-methylamino)methyl)benzoate] | 100 to 104 °C
CC(C)CN(c1ccc(C(=O)O)cc1)c1nc(-c2ccc(NC(=O)C3CCCCC3)cc2)cs1 [Example 13, 4-(N-(4-(4-(cyclohexanecarbonylamino)phenyl)-2-thiazolyl)-N-isobutylamino)benzoic acid] | 231 to 232 °C
CC(C)(c1ccc(C(=O)O)cc1)c1nc(-c2ccc(OCc3ccc(C4CCCCC4)cc3)cc2)cs1 [Example 42, 4-(1-(4-(4-(4-cyclohexylbenzyloxy)phenyl)-2-thiazolyl)-1-methylethyl)benzoic acid] | 219 to 221 °C
C=CCN(Cc1ccc(C2CCCCC2)cc1)c1ccc(-c2csc(N(C)Cc3ccc(C(=O)O)cc3)n2)cc1 [Example 119, 4-((N-(4-(4-(N-allyl-N-(4-cyclohexylbenzyl)amino)phenyl)-2-thiazolyl)-N-methylamino)methyl)benzoic acid] | 139 to 141 °C
O=C(O)c1ccc(CN(CCC2CCCCC2)c2nc(-c3cc(Cl)ccc3OCc3ccc(C(F)(F)F)cc3)cs2)cc1 [Example 165, 4-((N-(4-(5-chloro-2-(4-trifluoromethylbenzyloxy)phenyl)-2-thiazolyl)-N-(2-cyclohexylethyl)amino)methyl)benzoic acid] | 171 to 172 °C
O=C(O)c1ccc(Nc2nc(-c3cc(Cl)ccc3OCc3ccccc3)cs2)cc1 [Example 148, 4-(4-(2-benzyloxy-5-chlorophenyl)-2-thiazolylamino)benzoic acid] | 208 to 211 °C
CN(Cc1ccc(C2CCCC2)cc1)c1ccc(-c2csc(N(C)Cc3ccc(C(=O)O)cc3)n2)cc1 [Example 212, 4-((N-(4-(4-(N-(4-cyclopentylbenzyl)-N-methylamino)phenyl)-2-thiazolyl)-N-methylamino)methyl)benzoic acid] | 181 to 183 °C
COc1ccc(OCc2ccccc2)c(-c2csc(N(CCC3CCCCC3)c3ccc(C(=O)O)cc3)n2)c1 [Example 169, 4-(N-(4-(2-benzyloxy-5-methoxyphenyl)-2-thiazolyl)-N-(2-cyclohexylethyl)amino)benzoic acid] | 132 to 137 °C
CN(CCCc1ccccc1)c1ccc(-c2csc(N(C)Cc3ccc(C(=O)O)cc3)n2)cc1 [Example 225, 4-((N-methyl-N-(4-(4-(N-methyl-N-(3-phenylpropyl)amino)phenyl)-2-thiazolyl)amino)methyl)benzoic acid] | 127 to 128 °C
O=C(O)c1ccc(Nc2nc(-c3ccc(NC(=O)c4ccccc4)cc3)cs2)cc1 [Example 4, 4-(4-(4-benzoylaminophenyl)-2-thiazolylamino)benzoic acid] | 250 °C (dec.)
CN(Cc1ccc([C@H]2CCC[C@@H](O)C2)cc1)c1ccc(-c2csc(N(C)Cc3ccc(C(=O)O)cc3)n2)cc1 (relative stereo) [Example 205, cis-4-((N-(4-(4-(N-(4-(3-hydroxycyclohexyl)benzyl)-N-methylamino)phenyl)-2-thiazolyl)-N-methylamino)methyl)benzoic acid] | 220 °C
CN(Cc1ccc(C(=O)O)cc1)c1nc(-c2ccc(CN3CCN(c4ccccc4)CC3)cc2)cs1 [Example 239, 4-((N-methyl-N-(4-(4-(4-phenyl-1-piperazinylmethyl)phenyl)-2-thiazolyl)amino)methyl)benzoic acid] | 159 to 163 °C
CC(C)(c1ccc(C(=O)O)cc1)c1nc(-c2ccc(NC(=O)c3ccc(C4CCCCC4)cc3)cc2)cs1 [Example 43, 4-(1-(4-(4-(4-cyclohexylbenzoylamino)phenyl)-2-thiazolyl)-1-methylethyl)benzoic acid] | 262 to 264 °C
O=C(O)c1ccc(CN(CC2CCCCC2)c2nc(-c3ccc(N(Cc4ccc(Cl)c(Cl)c4)Cc4ccc(Cl)c(Cl)c4)cc3)cs2)cc1 [Example 117, 4-((N-(4-(4-(bis(3,4-dichlorobenzyl)amino)phenyl)-2-thiazolyl)-N-cyclohexylmethylamino)methyl)benzoic acid] | 120 °C (dec.)
CC(C)N(c1ccc(C(=O)O)cc1)c1nc(-c2ccc(NC(=O)c3ccccc3)cc2)cs1 [Example 9, 4-(N-(4-(4-benzoylaminophenyl)-2-thiazolyl)-N-isopropylamino)benzoic acid] | 234 to 236 °C
CC(C)N(c1ccc(C(=O)O)cc1)c1nc(-c2ccc(NC(=O)c3ccc(N4CCCCC4)cc3)cc2)cs1.Cl | 230 °C (dec.)
COc1ccc(OCc2ccccc2)c(-c2csc(Nc3ccc(C(=O)O)cc3)n2)c1 [Example 154, 4-(4-(2-benzyloxy-5-methoxyphenyl)-2-thiazolylamino)benzoic acid] | 184 to 185 °C

SMILES | melting point
CN(Cc1ccc(C(=O)[O-])cc1)c1nc(-c2ccc(OCc3ccc(C4CCCCC4)cc3)cc2)cs1.[Na+] [Example 120, sodium 4-((N-(4-(4-(4-cyclohexylbenzyloxy)phenyl)-2-thiazolyl)-N-methylamino)methyl)benzoate] | 250 °C (dec.)
O=C(O)c1ccc(Nc2nc(-c3ccc(OCc4ccc(C5CCCCC5)cc4)cc3)cs2)cc1 [Example 21, 4-(4-(4-(4-cyclohexylbenzyloxy)phenyl)-2-thiazolylamino)benzoic acid] | 250 °C (dec.)
O=C(O)c1ccc(Cc2nc(-c3ccc(OCc4ccc(C5CCCCC5)cc4)cc3)cs2)cc1 [Example 48, 4-(4-(4-(4-cyclohexylbenzyloxy)phenyl)-2-thiazolylmethyl)benzoic acid] | 235 to 238 °C
CN(Cc1ccc(C(=O)O)cc1)c1nc(-c2ccc(OCc3ccc(C4CCCCC4)cc3)cc2)cs1.CS(=O)(=O)O | 175 °C (dec.)
CC(=O)N1CCC(c2ccc(CN(C)c3ccc(-c4csc(N(C)Cc5ccc(C(=O)O)cc5)n4)cc3)cc2)CC1 [Example 211, 4-((N-(4-(4-(N-(4-(1-acetylpiperidin-4-yl)benzyl)-N-methylamino)phenyl)-2-thiazolyl)-N-methylamino)methyl)benzoic acid] | 208 to 210 °C
CN(Cc1ccc(C2CCCCC2)cc1)c1ccc(-c2csc(N(C)Cc3ccc(C(=O)[O-])cc3)n2)cc1.[K+] | 240 °C
CC(C)N(Cc1ccc(C(=O)O)cc1)c1nc(-c2ccc(NC(=O)c3ccc(N4CCOCC4)cc3)cc2)cs1 [Example 63, 4-((N-isopropyl-N-(4-(4-(4-morpholinobenzoylamino)phenyl)-2-thiazolyl)amino)methyl)benzoic acid] | 250 °C (dec.)
CC(C)N(c1ccc(OCC(=O)O)cc1)c1nc(-c2ccc(NC(=O)c3ccc(N4CCCCC4)nc3)cc2)cs1 [Example 57, (4-(N-isopropyl-N-(4-(4-(2-piperidino-5-pyridinecarbonylamino)phenyl)-2-thiazolyl)amino)phenoxy)acetic acid] | 237 to 240 °C
CC(C)c1ccc(COc2ccc(Cl)cc2-c2csc(N(CCC3CCCCC3)c3ccc(C(=O)O)cc3)n2)cc1 [Example 176, 4-(N-(4-(5-chloro-2-(4-isopropylbenzyloxy)phenyl)-2-thiazolyl)-N-(2-cyclohexylethyl)amino)benzoic acid] | 190 to 192 °C
COCCN(c1ccc(C(=O)O)cc1)c1nc(-c2ccc(OCc3ccc(Cl)c(Cl)c3)cc2)cs1 [Example 99, 4-(N-(4-(4-(3,4-dichlorobenzyloxy)phenyl)-2-thiazolyl)-N-(2-methoxyethyl)amino)benzoic acid] | 175 to 178 °C
O=C(O)c1ccc(N(CC2CCCCC2)c2nc(-c3cccc(OCc4ccc(C5CCCCC5)cc4)c3)cs2)cc1 [Example 142, 4-(N-(4-(3-(4-cyclohexylbenzyloxy)phenyl)-2-thiazolyl)-N-cyclohexylmethylamino)benzoic acid] | 195 to 197 °C
Cc1ccc(OCc2ccccc2)c(-c2csc(N(CCC3CCCCC3)c3ccc(C(=O)O)cc3)n2)c1 [Example 175, 4-(N-(4-(2-benzyloxy-5-methylphenyl)-2-thiazolyl)-N-(2-cyclohexylethyl)amino)benzoic acid] | 148 to 150 °C
CC(OC(=O)OC1CCCCC1)OC(=O)c1ccc(CN(C)c2nc(-c3ccc(OCc4ccc(C5CCCCC5)cc4)cc3)cs2)cc1 (stereo not drawn) [Example 272, 1-cyclohexyloxycarbonyloxyethyl 4-((N-(4-(4-(4-cyclohexylbenzyloxy)phenyl)-2-thiazolyl)-N-methylamino)methyl)benzoate] | 75 to 79 °C
CC(C)N(c1ccc(-c2nnn[nH]2)cc1)c1nc(-c2ccc(OCc3ccc(C4CCCCC4)cc3)cc2)cs1 [Example 78, N-(4-(4-(4-cyclohexylbenzyloxy)phenyl)-2-thiazolyl)-N-isopropyl-(4-(1H-tetrazol-5-yl)phenyl)amine] | 215 to 216 °C
CC(C)N(Cc1ccc(C(=O)O)cc1)c1nc(-c2ccc(NC(=O)c3ccc(N4CCCCC4)cc3)cc2)cs1 [Example 62, 4-((N-isopropyl-N-(4-(4-(4-piperidinobenzoylamino)phenyl)-2-thiazolyl)amino)methyl)benzoic acid] | 234 °C (dec.)
CC(C)N(c1ccc(OCC(=O)O)cc1)c1nc(-c2ccc(NC(=O)c3ccc(N4CCOCC4)cc3)cc2)cs1 [Example 54, (4-(N-isopropyl-N-(4-(4-(4-morpholinobenzoylamino)phenyl)-2-thiazolyl)amino)phenoxy)acetic acid] | 250 °C (dec.)
O=C(O)c1ccc(N(CC2CCCCC2)c2nc(-c3ccc(NCc4ccc(C(F)(F)F)cc4)cc3)cs2)cc1 [Example 134, 4-(N-cyclohexylmethyl-N-(4-(4-(4-trifluoromethylbenzylamino)phenyl)-2-thiazolyl)amino)benzoic acid] | 199 to 203 °C
CC(C)N(c1cccc(C(=O)O)c1)c1nc(-c2ccc(NC(=O)c3ccc(C4CCCCC4)cc3)cc2)cs1 [Example 28, 3-(N-(4-(4-(4-cyclohexylbenzoylamino)phenyl)-2-thiazolyl)-N-isopropylamino)benzoic acid] | 230 °C (dec.)
